Data: PubChem BioAssay (NCI)
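Test compounds were applied to cells in 96-well plates for 48 hours at 5 doses. The concentration for 50% growth inhibition is given as GI50. TGI marks complete inhibition of growth.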

Assays:
Experiment in all cases: NCI tumour cell line growth inhibition, 48 h
[1] = tested on: SK-MEL-2 melanoma
[2] = tested on: CAKI-1 renal
[3] = tested on: HCT-15 colon
[4] = tested on: UACC-257 melanoma
[5] = tested on: NCI-H460 lung
[6] = tested on: EKVX NSCLC
[7] = tested on: K-562 leukemia
[8] = tested on: SK-MEL-28 melanoma
[9] = tested on: A549 NSCLC
[10] = tested on: SF-295 CNS
[11] = tested on: RPMI-8226 leukemia
[12] = tested on: ACHN renal
[13] = tested on: HT29 colon
[14] = tested on: KM12 colon
[15] = tested on: HCC-2998 colon
[16] = tested on: HL-60(TB) leukemia
[17] = tested on: SN12C renal
[18] = tested on: OVCAR-3 ovarian
[19] = tested on: OVCAR-4 ovarian
[20] = tested on: CCRF-CEM leukemia
[21] = tested on: UO-31 renal
[22] = tested on: HS 578T breast
[23] = tested on: SW-620 colon
[24] = tested on: NCI/ADR-RES ovarian
[25] = tested on: T-47D breast
[26] = tested on: SK-MEL-5 melanoma
[27] = tested on: HOP-92 NSCLC
[28] = tested on: M14 melanoma
[29] = tested on: SR leukemia
[30] = tested on: MOLT-4 leukemia
[31] = tested on: MCF7 breast
[32] = tested on: SNB-75 CNS
[33] = tested on: U251 CNS
[34] = tested on: MDA-MB-231 breast
[35] = tested on: SK-OV-3 ovarian
[36] = tested on: UACC-62 melanoma
[37] = tested on: OVCAR-8 ovarian
[38] = tested on: NCI-H23 lung
[39] = tested on: TK-10 renal
[40] = tested on: COLO 205 colon
[41] = tested on: HCT-116 colon
[42] = tested on: SF-539 CNS
[43] = tested on: NCI-H522 lung
[44] = tested on: SNB-19 CNS
[45] = tested on: SF-268 CNS
[46] = tested on: BT-549 breast
[47] = tested on: DU-145 prostate
[48] = tested on: OVCAR-5 ovarian
[49] = tested on: IGROV1 ovarian
[50] = tested on: RXF 393 renal
[51] = tested on: MDA-MB-435
[52] = tested on: MALME-3M melanoma
[53] = tested on: HOP-62 NSCLC
[54] = tested on: A498 renal
[55] = tested on: NCI-H226 lung
[56] = tested on: 786-0 renal
[57] = tested on: PC-3 prostate

CCOC(=O)/C(=N/Nc1ccc(C)cc1)N1C(=S)C=C(C)NN(C)C1=S
TGI [1]: > 100 µM
TGI [2]: > 100 µM
TGI [3]: > 100 µM
TGI [4]: > 100 µM
TGI [5]: > 100 µM
TGI [6]: > 100 µM
TGI [7]: > 100 µM
TGI [8]: > 100 µM
TGI [9]: > 100 µM
TGI [10]: 39.3 µM
TGI [11]: > 100 µM
TGI [12]: > 100 µM
TGI [13]: > 100 µM
TGI [14]: > 100 µM
TGI [15]: > 100 µM
TGI [16]: > 100 µM
TGI [17]: > 100 µM
TGI [18]: > 100 µM
TGI [19]: > 100 µM
TGI [20]: > 100 µM
TGI [21]: > 100 µM
TGI [22]: > 100 µM
TGI [23]: > 100 µM
TGI [24]: > 100 µM
TGI [25]: > 100 µM
TGI [26]: > 100 µM
TGI [27]: > 100 µM
TGI [28]: > 100 µM
TGI [29]: > 100 µM
TGI [30]: > 100 µM
TGI [31]: > 100 µM
TGI [32]: > 100 µM
TGI [33]: 55.5 µM
TGI [34]: > 100 µM
TGI [35]: > 100 µM
TGI [36]: > 100 µM
TGI [37]: > 100 µM
TGI [38]: > 100 µM
TGI [39]: > 100 µM
TGI [40]: > 100 µM
TGI [41]: > 100 µM
TGI [42]: > 100 µM
TGI [43]: > 100 µM
TGI [44]: > 100 µM
TGI [45]: > 100 µM
TGI [46]: > 100 µM
TGI [47]: > 100 µM
TGI [48]: > 100 µM
TGI [49]: > 100 µM
TGI [50]: 83.7 µM
TGI [51]: > 100 µM

COc1cc(/C=C2\CN(S(=O)(=O)c3ccc(C)cc3)C/C(=C\c3cc(CN4CCOCC4)c(O)c(OC)c3)C2=O)cc(CN2CCOCC2)c1O
GI50 [1]: 21.9 µM
TGI [1]: 65.1 µM
GI50 [2]: 1.53 µM
TGI [2]: > 100 µM
GI50 [3]: 1.9 µM
TGI [3]: > 100 µM
GI50 [4]: 2.06 µM
TGI [4]: > 100 µM
GI50 [5]: 0.337 µM
TGI [5]: 2.52 µM
GI50 [6]: 16.9 µM
TGI [6]: 92.5 µM
GI50 [52]: 1.75 µM
TGI [52]: 65.8 µM
GI50 [7]: 0.561 µM
TGI [7]: > 100 µM
GI50 [8]: 4.85 µM
TGI [8]: > 100 µM
GI50 [9]: 13 µM
TGI [9]: > 100 µM
GI50 [10]: 12.5 µM
TGI [10]: 40.2 µM
GI50 [11]: 2.34 µM
TGI [11]: > 100 µM
GI50 [53]: 0.652 µM
TGI [53]: 38 µM
GI50 [12]: 1.47 µM
TGI [12]: 22.5 µM
GI50 [13]: 0.346 µM
TGI [13]: > 100 µM
GI50 [14]: 0.377 µM
TGI [14]: 25.5 µM
GI50 [15]: 2.05 µM
TGI [15]: 21.7 µM
GI50 [16]: 0.853 µM
TGI [16]: 27.4 µM
GI50 [17]: 0.524 µM
TGI [17]: 15.5 µM
GI50 [18]: 0.611 µM
TGI [18]: > 100 µM
GI50 [19]: 4.11 µM
TGI [19]: > 100 µM
GI50 [20]: 0.513 µM
TGI [20]: > 100 µM
GI50 [21]: 20.4 µM
TGI [21]: > 100 µM
GI50 [54]: 12.4 µM
TGI [54]: 54.4 µM
GI50 [22]: 0.721 µM
TGI [22]: 19.8 µM
GI50 [23]: 1.35 µM
TGI [23]: > 100 µM
GI50 [24]: 55 µM
TGI [24]: > 100 µM
GI50 [25]: 51.7 µM
TGI [25]: > 100 µM
GI50 [26]: 4.15 µM
TGI [26]: > 100 µM
GI50 [27]: 17.6 µM
TGI [27]: 71.8 µM
GI50 [28]: 0.689 µM
TGI [28]: > 100 µM
GI50 [29]: 0.342 µM
TGI [29]: > 100 µM
GI50 [30]: 0.321 µM
TGI [30]: > 100 µM
GI50 [31]: 0.394 µM
TGI [31]: > 100 µM
GI50 [32]: 0.527 µM
TGI [32]: 19.1 µM
GI50 [33]: 0.782 µM
TGI [33]: > 100 µM
GI50 [34]: 2.27 µM
TGI [34]: 92.5 µM
GI50 [35]: 7.89 µM
TGI [35]: 56.5 µM
GI50 [36]: 0.586 µM
TGI [36]: 16.4 µM
GI50 [37]: 0.323 µM
TGI [37]: > 100 µM
GI50 [38]: 3.31 µM
TGI [38]: > 100 µM
GI50 [39]: 15.4 µM
TGI [39]: 59.8 µM
GI50 [40]: 1.66 µM
TGI [40]: > 100 µM
GI50 [41]: 3.25 µM
TGI [41]: > 100 µM
GI50 [42]: 7.21 µM
TGI [42]: 33 µM
GI50 [43]: 2.34 µM
TGI [43]: 32.6 µM
GI50 [44]: 15.8 µM
TGI [44]: > 100 µM
GI50 [55]: 12.7 µM
TGI [55]: 85.8 µM
GI50 [45]: 0.935 µM
TGI [45]: 81.2 µM
GI50 [56]: 17.9 µM
TGI [56]: 59.4 µM
GI50 [46]: 17.6 µM
TGI [46]: 67.2 µM
GI50 [47]: 0.928 µM
TGI [47]: > 100 µM
GI50 [48]: > 100 µM
TGI [48]: > 100 µM
GI50 [49]: 1.09 µM
TGI [49]: 22.8 µM
GI50 [50]: 2.81 µM
TGI [50]: 29.5 µM
GI50 [57]: 1.24 µM
TGI [57]: > 100 µM
